From US20230293439A1, “SPRAY DRYING OF SUPERSATURATED SOLUTIONS OF API WITH ACETIC ACID” (BEND RESEARCH, INC., priority 2020, published 2023) come the findings set out here.

≈ marks a conversion by molar mass, not a printed value. Like-named read-outs stand apart in the source and are kept apart here.

Usually solubility stands for the concentration that dissolves in the medium under given conditions.

Data set [1] can be described thus: Metastability of the supersaturated nilotinib solution from the Solvent-Shift route (visual check for precipitation).
Data set [2] is described as follows: Solubility determination of nilotinib (saturated solution, 24 h stirring, filtrate analysed by gravimetry). In kind it is physicochemical. The conditions noted are these: for solubility at 24 h: organic solvent or mixture, thermodynamic from solid.
Experimental: A saturated solution of nilotinib was prepared in the respective solvent at the respective temperature with excess crystalline nilotinib and allowed to stir for 24 h, a suspension of nilotinib in the solvent, which was saturated with nilotinib, was obtained. The suspension was filtered through a 1 micrometer glass filter. Crystalline solubility was determined by analysis of the filtrate, which is the saturated solution, by gravimetry (weighing).
The mark [3] stands for this setting: Glacial Acetic Acid, wt % of saturated solution.
Where [4] appears, read: Methanol:Acetic Acid 9:1 (w:w), wt % of saturated solution.
Setting [5] is: Methanol, wt % based on weight of the saturated solution.

With `Cc1cn(-c2cc(NC(=O)c3ccc(C)c(Nc4nccc(-c5cccnc5)n4)c3)cc(C(F)(F)F)c2)cn1` [Nilotinib], the “Time at which visible solids were observed” value in data set [1] (Example 1: 2.15 wt % nilotinib in 91.2:8.8 (w:w) methanol:acetic acid, 40° C., no polymer) was found to be 7.5 h; in data set [1] (Example 3: 2.19 wt % nilotinib in 85.0:9.0:6.0 (w:w:w) methanol:acetic acid:PVP-VA64, 40° C.), 4 h. Moreover, the “Appearance of the control mixture (nilotinib weighed directly into the solvent mixture)” value in data set [1] (Example 1 control: 2.06 wt % nilotinib in 89.5:10.5 (w:w) methanol:acetic acid, 40° C.) is “visible slurry”. The solubility at 24 h in data set [2] (25 °C, Glacial Acetic Acid, mg per ml saturated solution, read-out: Solubility at 25° C.) was determined as 135000 µg/mL (≈ 255 mM); in data set [2] (25 °C, Methanol:Acetic Acid 9:1 (w:w), mg per ml saturated solution, read-out: Solubility at 25° C.), 6000 µg/mL (≈ 11.3 mM); in data set [2] (25 °C, Methanol, mg of nilotinib per ml saturated solution, read-out: Solubility at 25° C.), 2800 µg/mL (≈ 5.29 mM); in data set [2] (40 °C, Glacial Acetic Acid, mg per ml saturated solution, read-out: Solubility at 40° C.) it was 233000 µg/mL (≈ 440 mM). Moreover, the “Solubility at 25° C.” value in data set [2] (setting [3]) came out at 12.7 wt %; in data set [2] (setting [4]), 0.76 wt %; in data set [2] (setting [5]), 0.36 wt %. For the same compound, the “Solubility at 40° C.” value in data set [2] (setting [3]) is 21.1 wt %; in data set [2] (Methanol:Acetic Acid 9:1 (w:w), mg per ml saturated solution) it was 8 mg/mL (≈ 15.1 mM); in data set [2] (setting [4]) it was 1.0 wt %; in data set [2] (Methanol, mg of nilotinib per ml saturated solution), 5.0 mg/mL (≈ 9.44 mM); in data set [2] (setting [5]) it was 0.66 wt %.
